Source: patent US20240165282A1, “CONFORMATIONAL CONSTRAINED SOMATOSTATIN RECEPTOR 3 PEPTIDE LIGANDS AND THEIR CONJUGATES AND USES THEREOF” (STARGET PHARMA LTD., priority 2021, published 2024)
Blank lines part the entries; values can stand above or below the compound they belong to. *1 amine or outer side, *2 acyl side, *3 side chain or, on linkers, in order; H or OH if unused. Where a SMILES comes first, the peptide text is derived from it. Bridges are numbered along the chain shown (N, C = ends). [ ]: non-standard residue; d: D form. The star is where a group is joined. DOTA = O=C(O)CN1CCN(CC(=O)O)CCN(CC(=O)*)CCN(CC(=O)O)CC1; N(2-mercaptoethyl)Gly = O=C(CN(CCS[*:3])[*:1])[*:2]

How the values were obtained:
hSSTR-4 = target: T1, hSSTR-4 (Homo sapiens, UniProt P31391); assay: Radioligand binding, displacement of 125I-Tyr11-SRIF-14; details: hSSTR-4; for IC50: read-out: IC50
T1 construct: host or cells: Chem-1 (Rat ChemiSCREEN) cells, membrane preparation
Summary of the method: (§1)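 Assays ran at 25 °C in 25 mM HEPES pH 7.4 with 5 mM MgCl2, 1 mM CaCl2, 0.1% BSA and 1% DMSO. Filter-bound radioactivity gave IC50 by nonlinear least-squares regression.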

GH release = assay: L-arginine induced GH release in rats; assay type: in vivo, Wistar rats; details: S.C. 100-1000 microgram/kg, L-arginine stimulation
Procedure: (§2) In vivo determination of the pharmacodynamic properties of SSTR3 analogs was carried out in rats, according to known procedures (Afargan M. et al., 2001, Pless J. et al 1986).
Inhibition of GH release as a result of peptide administration was measured in Wistar male rats.
(§3) Adult male Wistar rats weighing 200-220 g, were maintained on a constant light-dark cycle (light from 8:00 to 20:00 h), temperature (21±3° C.), and relative humidity (55±10%). Laboratory chow and tap water were available ad libitum. All animals in the study were fasted overnight, animals were placed in cages with metal mesh to prevent coprophagia with free access to water. On the day of the experiment, rats were anesthetized with Nembutal (IP, 60 mg/kg). Ten minutes after anesthesia, drugs were administrated S.C. at 100-1000 microgram/kg dose. At 10 minutes after drugs administration the stimulation of GH and glucagon release were carried out by i.v. bolus administration of 0.5 g/kg L-arginine, stimulation of insulin release was carried out in separate animal groups that received i.v. bolus of 0.5 g/kg of glucose. Terminal blood samples in EDTA were collected at 5 minutes after stimulation. Blood samples were and centrifuged immediately. Plasma was separated and kept frozen at −20° C. until assayed.
Rat growth hormone (rGH), glucagon and insulin levels were determined by commercial ELISA kits using the Millipore ELISA kits (Billerica, MA, USA). The ELISA kit for rat plasma GH, Millipore, Cat. No. EZRMGH-45K was performed according to the validated detection method of colorimetric sandwich ELISA protocol (Supriya S. et al., 2013). The ELISA kit for rat plasma insulin, Millipore Cat. No. MMEZRMI13K (Merck) was performed according to the validated detection method of fluorescent colorimetric protocol (Xu, P.Z. et al., 2012). […]
(§4) Data analysis of rat plasma GH, glucagon and insulin levels was evaluated by the averaged plasma hormones levels of each group. […] Results are expressed as the mean±SEM.

insulin release = assay: Glucose induced insulin release in rats; assay type: in vivo, Wistar rats; details: S.C. 100-1000 microgram/kg, glucose stimulation
Procedure: as §2, §3
Rat growth hormone (rGH), glucagon and insulin levels were determined by commercial ELISA kits using the Millipore ELISA kits (Billerica, MA, USA). The ELISA kit for rat plasma GH, Millipore, Cat. No. EZRMGH-45K was performed according to the validated detection method of colorimetric sandwich ELISA protocol (Supriya S. et al., 2013). The ELISA kit for rat plasma insulin, Millipore Cat. No. MMEZRMI13K (Merck) was performed according to the validated detection method of fluorescent colorimetric protocol (Xu, P.Z. et al., 2012). The ELISA kit for rat plasma glucagon, Millipore, Cat. No. EZGLU-35 was performed according to the validated detection method of chemiluminescent sandwich ELISA protocol (Soyeon Y. et al., 2021).
as §4

SSTR3 [1] = target: T2, SSTR3 (Homo sapiens, UniProt P32745); assay: β-Arrestin mediated receptor internalization (PathHunter), transfected CHO cells; assay type: cell-based; parameters: host or cells: CHO cells
Procedure: (§5) The assays were performed utilizing the PathHunter beta-arrestin enzyme fragment complementation (EFC) technology by Eurofins (CA, USA).
(§6) Cell Handling: 1. PathHunter cell lines were expanded from freezer stocks according to standard procedures. 2. Cells were seeded in a total volume of 20 μL into white walled, 384-well microplates and incubated at 37° C. for the appropriate time prior to testing. Agonist Format: 1. For agonist determination, cells were incubated with sample to induce response. 2. Intermediate dilution of sample stocks was performed to generate 5× sample in assay buffer. 3. 5 μL of 5× sample was added to cells and incubated at 37° C. or room temperature for 90 or 180 minutes. Final assay vehicle concentration was 1%. […] Microplates were read following signal generation with a PerkinElmer Envision™ instrument for chemiluminescent signal detection. Data Analysi: Compound activity was analyzed using CBIS data analysis suite (ChemInnovation, CA). […] For agonist mode assays, percentage activity was calculated using the following formula: % Activity=100%×(mean RLU of test sample−mean RLU of vehicle control)/(mean MAX control ligand−mean RLU of vehicle control). […] For antagonist mode assays, percentage inhibition was calculated using the following formula: % Inhibition =100%×(1−(mean RLU of test sample−mean RLU of vehicle control)/(mean RLU of EC80 control−mean RLU of vehicle control)). […]

SSTR5 = SSTR5 (Homo sapiens, UniProt P35346); assay: Radioligand binding, displacement of 125I-Tyr11-SRIF-14; parameters: host or cells: Chem-1 (Rat ChemiSCREEN) cells, membrane preparation; details: hSSTR-5; for IC50: read-out: IC50
Summary of the method: as §1

SSTR1 = SSTR1 (Homo sapiens, UniProt P30872); assay: as above; parameters: host or cells: CHO (Chinese Hamster Ovary) cells, membrane preparation; details: hSSTR-1; for IC50: read-out: IC50
Summary of the method: as §1

SSTR2 [2] = target: T3, SSTR2 (Homo sapiens, UniProt P30874); assay: as above; parameters: host or cells: CHO (Chinese Hamster Ovary) cells, membrane preparation; details: hSSTR-2; for IC50: read-out: IC50
Summary of the method: as §1

SSTR3 [3] = target: T2, SSTR3; assay: as above; parameters: host or cells: CHO (Chinese Hamster Ovary) cells, membrane preparation; details: for affinity and selectivity to SSTR3 (in words): binding data; for Hill coefficient (nH) / Ki / IC50: hSSTR-3; for Ki: Cheng and Prusoff, read-out: Ki; for IC50: read-out: IC50
Summary of the method: as §1

[4] = Physicochemical studies of surface activity; details: nonspecific binding
in vivo = details: iv, total radioactivity
Procedure: (§7) In this example, imaging performance, biodistribution and tumor uptake of SSTR3 selective radioligands in rodents bearing xenografts of transfected SSTR3 cells was determined using the following method: Animal handling was conducted in accordance with the European Council Directive 2010/63/UE. All experimental procedures were approved by the Institutional Ethical Committee and local authorities. For biodistribution studies, female nude nu/nu Balb/c mice or nude nu/nu rats (Charles River) were used. Dynamic PET-CT imaging experiments were performed up to 240 minutes in mice and up to 270 minutes in rats, under isoflurane anesthesia following the intravenous injection of the radiolabeled tracers. All experiments were performed during the light phase of the light—dark cycle. Biodistribution was determined by quantitative analysis of the PET-CT scan and calculated as % percentage of […] of the total injected dose (%ID/g) or by the value of SUV which is the ratio of the image-derived radioactivity concentration Cimg and the whole-body concentration of the injected radioactivity Cinj.

[5] = test system: Xenograft of SSTR3 transfected HEK-293 cells; assay: in vivo; details: rat
Procedure: as §7

[6] = test system: Desmoplastic Small Round Cell Tumor with SSTR3 expression; assay type: in vivo, human
Procedure: In this example, the safety, biodistribution, imaging performance and tumor uptake in patient with sarcoma type DSRCT tumor positive SSTR3 expression was evaluated. Following radiolabeling of the title compound, the eluted solution of the radiolabel tracer was filtered for sterility and injected intravenously in isotonic solution. PET-CT scan was performed at 30- and 120-minutes post injection of the radiolabeled tracer at approximately 600 Mbq. Body temperature, heart rate, and blood pressure were monitored before during and after the PET-CT scan for safety evaluation. The patient was a person, diagnosed for DSRCT 8 years prior. Over the last 8 years, before the current example, the patient was treated with External beam radiation therapy (EBRT), chemotherapy (Irinotecan/temozolomide, melphalan/treosuflan, gemcitabine/docetaxel, pazopanib, topotecan/cyclophosphamide, cabozantinib, densumab), and laminectomy (to resect spine—tumoral foci). A biopsy analysis was performed 3 months before the PET-CT and indicated high mRNA expression of SSTR3.

SSTR2 [7] = target: T3, SSTR2; assay: β-Arrestin mediated receptor internalization (PathHunter), transfected CHO cells; assay type: cell-based; details: SSTR2 transfected cells
Procedure: as §5, §6

[8] = Cheng and Prusoff, read-out: Ki
[9] = female, nude nu/nu Balb/c, mouse, Kidneys % ID/cm^3
[10] = female, nude nu/nu Balb/c, mouse, Tumor % ID/cm^3

T3 sequence (P30874 whole entry): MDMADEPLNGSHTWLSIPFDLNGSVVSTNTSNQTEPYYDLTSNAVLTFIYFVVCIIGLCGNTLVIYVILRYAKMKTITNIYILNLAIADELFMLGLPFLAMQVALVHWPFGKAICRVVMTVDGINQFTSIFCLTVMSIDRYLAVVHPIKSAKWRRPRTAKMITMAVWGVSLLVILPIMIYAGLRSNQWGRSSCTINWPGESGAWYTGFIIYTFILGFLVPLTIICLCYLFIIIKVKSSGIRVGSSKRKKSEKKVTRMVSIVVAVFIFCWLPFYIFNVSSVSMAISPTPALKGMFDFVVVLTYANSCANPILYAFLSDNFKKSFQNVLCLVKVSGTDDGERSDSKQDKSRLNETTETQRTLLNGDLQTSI
T2 sequence (P32745 whole entry, the tested form may be a part): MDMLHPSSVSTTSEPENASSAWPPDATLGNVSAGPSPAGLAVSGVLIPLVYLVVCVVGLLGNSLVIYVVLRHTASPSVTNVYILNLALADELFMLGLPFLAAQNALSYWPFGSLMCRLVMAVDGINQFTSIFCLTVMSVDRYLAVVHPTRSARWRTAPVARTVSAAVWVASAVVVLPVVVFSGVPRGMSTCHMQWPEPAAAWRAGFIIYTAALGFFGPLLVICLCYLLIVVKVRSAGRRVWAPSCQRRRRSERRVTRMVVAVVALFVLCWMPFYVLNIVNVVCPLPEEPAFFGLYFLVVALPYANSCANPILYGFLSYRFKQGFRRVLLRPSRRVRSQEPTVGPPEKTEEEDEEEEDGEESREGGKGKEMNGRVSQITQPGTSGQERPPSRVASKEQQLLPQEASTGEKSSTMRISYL
SSTR1, sequence (P30872 whole entry): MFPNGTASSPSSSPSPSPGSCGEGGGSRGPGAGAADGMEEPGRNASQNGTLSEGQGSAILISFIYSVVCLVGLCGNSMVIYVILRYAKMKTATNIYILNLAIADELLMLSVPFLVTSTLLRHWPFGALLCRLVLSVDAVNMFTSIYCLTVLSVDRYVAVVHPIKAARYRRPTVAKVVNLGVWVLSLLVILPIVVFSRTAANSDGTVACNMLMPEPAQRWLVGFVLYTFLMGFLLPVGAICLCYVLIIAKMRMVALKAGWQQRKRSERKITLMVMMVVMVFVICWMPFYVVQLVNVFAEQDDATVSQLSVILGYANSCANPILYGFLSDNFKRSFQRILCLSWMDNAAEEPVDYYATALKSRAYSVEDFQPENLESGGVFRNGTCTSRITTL
T1 sequence (P31391 whole entry): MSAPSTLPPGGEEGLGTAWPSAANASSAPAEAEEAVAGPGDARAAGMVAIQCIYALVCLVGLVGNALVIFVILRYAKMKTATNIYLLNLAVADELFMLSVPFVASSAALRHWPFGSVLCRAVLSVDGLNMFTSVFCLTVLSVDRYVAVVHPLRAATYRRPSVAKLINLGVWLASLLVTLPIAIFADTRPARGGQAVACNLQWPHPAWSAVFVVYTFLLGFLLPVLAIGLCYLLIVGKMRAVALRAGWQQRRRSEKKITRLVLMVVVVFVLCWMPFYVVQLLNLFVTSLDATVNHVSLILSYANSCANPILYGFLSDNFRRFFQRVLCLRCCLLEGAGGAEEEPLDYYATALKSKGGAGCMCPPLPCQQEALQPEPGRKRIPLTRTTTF
SSTR5, sequence (P35346 whole entry): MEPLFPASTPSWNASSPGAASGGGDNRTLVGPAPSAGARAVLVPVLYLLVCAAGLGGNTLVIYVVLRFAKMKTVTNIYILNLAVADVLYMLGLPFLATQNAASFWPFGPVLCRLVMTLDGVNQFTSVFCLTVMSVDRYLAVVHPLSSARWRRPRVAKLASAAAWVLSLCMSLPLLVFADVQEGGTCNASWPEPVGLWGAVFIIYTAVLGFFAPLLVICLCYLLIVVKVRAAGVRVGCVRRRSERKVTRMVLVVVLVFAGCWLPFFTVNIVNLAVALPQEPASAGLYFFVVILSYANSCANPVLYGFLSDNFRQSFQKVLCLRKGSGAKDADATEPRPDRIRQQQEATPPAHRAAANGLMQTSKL

Hill coefficient (nH) (hSSTR-4): 1.24 | Ki (hSSTR-4; [8]): > 1000 nM | IC50 (hSSTR-4): > 1000 nM | Hill coefficient (nH) (SSTR5): 1.2 | Ki (SSTR5; [8]): 170 nM | IC50 (SSTR5): 310 nM | Hill coefficient (nH) (SSTR1): 0.74 | Ki (SSTR1; [8]): 150 nM | IC50 (SSTR1): 180 nM | Hill coefficient (nH) (SSTR2 [2]): 1.25 | Ki (SSTR2 [2]; [8]): 320 nM | IC50 (SSTR2 [2]): 390 nM | Hill coefficient (nH) (SSTR3 [3]): 1.28 | Ki (SSTR3 [3]): 0.15 nM | IC50 (SSTR3 [3]): 0.43 nM
Compound: C[C@@H](O)[C@@H]1NC(=O)[C@H](CCCCN)NC(=O)[C@@H](Cc2c[nH]c3ccccc23)NC(=O)[C@H](Cc2ccccc2)NC(=O)[C@@H](NC(=O)[C@H](CCCNC(=N)N)NC(=O)[C@H](N)Cc2ccccc2)CSSCCN(CC(N)=O)C(=O)[C@H](Cc2ccccc2)NC1=O [SEQ ID NO: 1, H-D-Phe^1-Arg^2-Cys^3-Phe^4-D-Trp^5-Lys^6-Thr^7-Phe^8-NTEG^9-NH^2 (cyclo 3-9)] (H-[dF]RCF[dW]KTF[N(2-mercaptoethyl)Gly]-NH2; disulfide 3-9)
inhibition of GH release (GH release; listed as SEQ ID NO.1): potent inhibitors of pituitary GH release | inhibition of GH release (GH release; listed as SEQ ID NO:1): potent anti-secretagogue of growth hormone secretion | effect on insulin release (insulin release): did not affect insulin release | agonistic activity profile at SSTR3 (in words) (SSTR3 [1]): superagonistic activity profile of SSTR3 above the native hormone SRIF-14 | affinity and selectivity to SSTR3 (in words) (SSTR3 [3]): high affinity and selectivity to human cloned SSTR3 in the nanomolar range

IC50 (hSSTR-4): > 1000 nM | IC50 (SSTR5): > 500 nM | IC50 (SSTR1): > 100 nM | IC50 (SSTR2 [2]): > 500 nM | Hill coefficient (nH) (SSTR3 [3]): 1.09 | Ki (SSTR3 [3]): 0.25 nM | IC50 (SSTR3 [3]): 0.73 nM
Compound: C[C@@H](O)[C@@H]1NC(=O)[C@H](CCCCN)NC(=O)[C@@H](Cc2c[nH]c3ccccc23)NC(=O)[C@H](Cc2ccccc2)NC(=O)[C@@H](NC(=O)[C@H](CCCCN)NC(=O)[C@H](N)Cc2ccccc2)CSSCCN(CC(N)=O)C(=O)[C@H](Cc2ccccc2)NC1=O [SEQ ID NO: 2, H-D-Phe^1-Lys^2-Cys^3-Phe^4-D-Trp^5-Lys^6-Thr^7-Phe^8-NTEG^9-NH2 (cyclo 3-9)] (H-[dF]KCF[dW]KTF[N(2-mercaptoethyl)Gly]-NH2; disulfide 3-9)
inhibition of GH release (GH release): potent inhibitors of pituitary GH release | effect on insulin release (insulin release): did not affect insulin release | surface activity profile [4]: favorable surface activity profile by means of reduced nonspecific binding | affinity and selectivity to SSTR3 (in words) (SSTR3 [3]): retained the binding affinity and selectivity to SSTR3

Compound: C[C@@H](O)[C@@H]1NC(=O)[C@H](CCCCN)NC(=O)[C@@H](Cc2c[nH]c3ccccc23)NC(=O)[C@H](Cc2ccccc2)NC(=O)[C@@H](NC(=O)[C@H](CCCNC(=N)N)NC(=O)[C@@H](Cc2ccccc2)NC(=O)CN2CCN(CC(=O)O)CCN(CC(=O)O)CCN(CC(=O)O)CC2)CSSCCN(CC(N)=O)C(=O)[C@H](Cc2ccccc2)NC1=O [^68Ga -SEQ ID NO: 4, metal not drawn] ({DOTA}-[dF]RCF[dW]KTF[N(2-mercaptoethyl)Gly]-NH2; disulfide 3-9)
tissue uptake per volume at 2.5 h (in vivo; [9]): 6 %ID/mL | tissue uptake per volume at 4 h (in vivo; [9]): 6.6 %ID/mL | tissue uptake per volume at 2.5 h (in vivo; [10]): 9.6 %ID/mL | tissue uptake per volume at 4 h (in vivo; [10]): 12.3 %ID/mL | tissue uptake per volume at 2.5 h (in vivo; nude nu/nu, rat, Kidneys % ID/cm^3): 3.2 %ID/mL | tissue uptake per volume at 2.5 h (in vivo; nude nu/nu, rat, Tumor % ID/cm^3): 4.7 %ID/mL | tumor uptake above the kidneys (tumor/kidneys) [5]: approximately 50% | Kidneys SUV ([5]; iv): 7.6 | Tumor SUV ([5]; iv): 11.0 | safety evaluations ([6]; human, in vivo): no abnormal toxicity signs | uptake in off-target organs ([6]; human, in vivo): no uptake in off-target organs | elimination of the tracer ([6]; human, in vivo, iv): rapid elimination of the tracer was observed from the blood to the kidneys | tumor uptake (radioactive foci) ([6]; patient with DSRCT, FIG. 9): several radioactive foci were detected in the lung, neck and pelvic regions

Compound: SRIF-28
Efficacy - maximal response (SSTR2 [7]): 47480 RLU | Note (SSTR2 [7]): Agonist
